The target of the experiment is unphosphorylated-BTK kinase domain (UP-BTK), GST-tagged human BTK (389-659aa) (Homo sapiens (Human), UniProt Q06187). The experiment is described as follows: BTK kinase Lanthascreen binding assay. The settings on record: 60 minutes incubation, pIC50 = negative log of the IC50 in molar; for IC50: read-out: BTK_I_binding pIC50 (converted). A digest of the protocol:
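Values are pIC50, i.e. negative log of IC50 in molar, derived from concentration–response fitting. Each compound competes with a fluorescently labelled tracer for the unphosphorylated kinase domain.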
For orientation: Time-resolved FRET reads energy transfer from a long-lived donor to a nearby acceptor.

[1] abbreviates: Lanthascreen tracer competition.
Setting [2] is: unphosphorylated-BTK kinase domain, 50 nM Tracer 236.

SMILES strings stand for the structures. Like-named read-outs stand apart in the source and are kept apart here.

unphosphorylated-BTK kinase domain (UP-BTK), GST-tagged human BTK (389-659aa), sequence (Q06187 389-659): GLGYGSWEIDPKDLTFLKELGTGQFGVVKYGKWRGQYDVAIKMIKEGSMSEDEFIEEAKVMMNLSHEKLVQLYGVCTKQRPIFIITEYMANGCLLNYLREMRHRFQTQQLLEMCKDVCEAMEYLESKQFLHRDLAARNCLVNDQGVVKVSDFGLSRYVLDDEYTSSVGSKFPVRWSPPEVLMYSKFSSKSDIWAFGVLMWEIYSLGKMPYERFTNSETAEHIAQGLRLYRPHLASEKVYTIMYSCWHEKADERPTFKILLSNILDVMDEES

Consider `Cc1cc(Oc2ccccc2)ccc1N1C(=O)Nc2c(C(=O)N[C@@H]3CCCN(C(=O)/C(C#N)=C/C(C)(C)C)C3)sc3nccc1c23` (single isomer, unassigned) [Example 866, (R,E)-N-(1-(2-Cyano-4,4-dimethylpent-2-enoyl)piperidin-3-yl)-5-(*S)-(2-methyl-4-phenoxyphenyl)-4-oxo-4,5-dihydro-3H-1-thia-3,5,8-triazaacenaphthylene-2-carboxamide], for which the “BTK_I_binding pIC50” value under setting [1] was found to be 7.3.

Turning to `C=CC(=O)N1CC[C@@H](NC(=O)c2sc3nccc4c3c2NC(=O)N4c2cnc(OC(C)C)cc2C)C1` (single isomer, unassigned) [Example 959, (R)—N-(1-Acryloylpyrrolidin-3-yl)-5-(*S)-(6-isopropoxy-4-methylpyridin-3-yl)-4-oxo-4,5-dihydro-3H-1-thia-3,5,8-triazaacenaphthylene-2-carboxamide], the “BTK_I_binding pIC50” value under setting [2] was determined as 7.5.

As for `C=CC(=O)N1CC(F)C[C@@H](NC(=O)c2sc3nccc4c3c2NC(=O)N4c2ccc(Oc3ccccc3)cc2C)C1` (stereo in doubt) [Example 3, N-((3R,5S)-1-Acryloyl-5-fluoropiperidin-3-yl)-5-(2-methyl-4-phenoxyphenyl)-4-oxo-4,5-dihydro-3H-1-thia-3,5,8-triazaacenaphthylene-2-carboxamide], the “BTK_I_binding pIC50” value (50 nM Tracer 236) was found to be 7.9.

As for `Cc1cc(Oc2ccccc2)ccc1N1C(=O)Nc2c(C(=O)NC3CCCN(C(=O)/C=C/CO)C3)sc3nccc1c23` (stereo in doubt) [Example 25, (S,E)-N-(1-(4-Hydroxybut-2-enoyl)piperidin-3-yl)-5-(2-methyl-4-phenoxyphenyl)-4-oxo-4,5-dihydro-3H-1-thia-3,5,8-triazaacenaphthylene-2-carboxamide], the “BTK_I_binding pIC50” value (50 nM Tracer 236) stood at 7.5.

As to `C=CC(=O)N1CC(OC)[C@@H](NC(=O)c2sc3nccc4c3c2NC(=O)N4c2ccc(Oc3ccccc3)cc2C)C1` (stereo in doubt) [Example 34, N-((3S,4R)-1-Acryloyl-4-methoxypyrrolidin-3-yl)-5-(2-methyl-4-phenoxyphenyl)-4-oxo-4,5-dihydro-3H-1-thia-3,5,8-triazaacenaphthylene-2-carboxamide], where the note is “50 nM Tracer 236”, the IC50 was 25.1 nM.

On to `C=CC(=O)N1CC(O)[C@@H](NC(=O)c2sc3nccc4c3c2NC(=O)N4c2ccc(Oc3ccccc3)cc2C)C1` (stereo in doubt) [Example 50, N-((3S,4S)-1-Acryloyl-4-hydroxypyrrolidin-3-yl)-5-(2-methyl-4-phenoxyphenyl)-4-oxo-4,5-dihydro-3H-1-thia-3,5,8-triazaacenaphthylene-2-carboxamide], for which the “BTK_I_binding pIC50” value (50 nM Tracer 236) is given as 7.5.

`Cc1cc(Oc2ccccc2F)ccc1N1C(=O)Nc2c(C(=O)NC3CCCN(C)C3)sc3nccc1c23` (stereo in doubt) [Example 57, (R)-5-(4-(2-Fluorophenoxy)-2-methylphenyl)-N-(1-methylpiperidin-3-yl)-4-oxo-4,5-dihydro-3H-1-thia-3,5,8-triazaacenaphthylene-2-carboxamide]: the “BTK_I_binding pIC50” value (50 nM Tracer 236) is given as 6.8.

For `C=CC(=O)N1CC(NC(=O)c2sc3nccc4c3c2NC(=O)N4c2ccc(Oc3ccccc3)cc2)C[C@@H](O)C1` (stereo in doubt) [Example 589, N-((3R,5R)-1-Acryloyl-5-hydroxypiperidin-3-yl)-4-oxo-5-(4-phenoxyphenyl)-4,5-dihydro-3H-1-thia-3,5,8-triazaacenaphthylene-2-carboxamide], the IC50 under setting [1] is 7.94 nM.

Turning to `Cc1cc(Oc2ccccc2)ccc1N1C(=O)Nc2c(C(=O)NC3CCCNC3)sc3nccc1c23` (stereo in doubt) [Example 869, (R)-5-(2-Methyl-4-phenoxyphenyl)-4-oxo-N-(piperidin-3-yl)-4,5-dihydro-3H-1-thia-3,5,8-triazaacenaphthylene-2-carboxamide], the IC50 under setting [1] was 50.1 nM.

For `Cc1cc(Oc2ccccc2)ccc1N1C(=O)Nc2c(C(=O)NC3CCCN(C(=O)CC#N)C3)sc3nccc1c23` (stereo in doubt) [Example 874, (R)—N-(1-(2-cyanoacetyl)piperidin-3-yl)-5-(2-methyl-4-phenoxyphenyl)-4-oxo-4,5-dihydro-3H-1-thia-3,5,8-triazaacenaphthylene-2-carboxamide], under setting [1], the IC50 is 63.1 nM.

Consider `O=C(NC1CCCN(C(=O)CCCl)C1)c1sc2nccc3c2c1NC(=O)N3c1ccc(Oc2ccccc2)cn1` (stereo in doubt) [Example 906, (R)—N-(1-(3-Chloropropanoyl)piperidin-3-yl)-4-oxo-5-(5-phenoxypyridin-2-yl)-4,5-dihydro-3H-1-thia-3,5,8-triazaacenaphthylene-2-carboxamide], for which, under setting [2], the “BTK_I_binding pIC50” value was 6.7.

`O=C(NC1CCNC1)c1sc2nccc3c2c1NC(=O)N3c1ccc(Oc2ccccc2)cc1` (stereo in doubt) [Example 934, (S)-4-Oxo-5-(4-phenoxyphenyl)-N-(pyrrolidin-3-yl)-4,5-dihydro-3H-1-thia-3,5,8-triazaacenaphthylene-2-carboxamide]: the “BTK_I_binding pIC50” value under setting [2] is 6.1.

With `C=CC(=O)N1C[C@H](F)C[C@@H](NC(=O)c2sc3nccc4c3c2NC(=O)N4c2ccc(Oc3ccccc3)cc2C)C1` [Example 1, N-((3R,5R)-1-Acryloyl-5-fluoropiperidin-3-yl)-5-(2-methyl-4-phenoxyphenyl)-4-oxo-4,5-dihydro-3H-1-thia-3,5,8-triazaacenaphthylene-2-carboxamide], for the setting “50 nM Tracer 236”, the IC50 was 20 nM.

For the compound `C=CC(=O)N1CCC[C@@H](NC(=O)c2sc3nccc4c3c2NC(=O)N4c2ccc(Oc3ccccc3)c(F)c2C)C1` [Example 4, (R)—N-(1-Acryloylpiperidin-3-yl)-5-(3-fluoro-2-methyl-4-phenoxyphenyl)-4-oxo-4,5-dihydro-3H-1-thia-3,5,8-triazaacenaphthylene-2-carboxamide], the “BTK_I_binding pIC50” value (50 nM Tracer 236) came to 7.7.

As to `C=CC(=O)N1C[C@H](O)C[C@@H](NC(=O)c2sc3nccc4c3c2NC(=O)N4c2ccc(Oc3ccccc3)cc2C)C1` [Example 6, N-((3R,5R)-1-Acryloyl-5-hydroxypiperidin-3-yl)-5-(2-methyl-4-phenoxyphenyl)-4-oxo-4,5-dihydro-3H-1-thia-3,5,8-triazaacenaphthylene-2-carboxamide], under “50 nM Tracer 236”, the IC50 was 12.6 nM.

Consider `C=CC(=O)N1CC[C@@H](NC(=O)c2sc3nccc4c3c2NC(=O)N4c2ccc(Oc3ccccc3)c(F)c2C)C1` [Example 7, (R)—N-(1-Acryloylpyrrolidin-3-yl)-5-(3-fluoro-2-methyl-4-phenoxyphenyl)-4-oxo-4,5-dihydro-3H-1-thia-3,5,8-triazaacenaphthylene-2-carboxamide], for which the IC50 (50 nM Tracer 236) was 12.6 nM.

In the case of `C=CC(=O)N1C[C@H](NC(=O)c2sc3nccc4c3c2NC(=O)N4c2ccc(Oc3ccccc3)cc2C)C[C@@H](OC)C1` [Example 8, N-((3R,5R)-1-Acryloyl-5-methoxypiperidin-3-yl)-5-(2-methyl-4-phenoxyphenyl)-4-oxo-4,5-dihydro-3H-1-thia-3,5,8-triazaacenaphthylene-2-carboxamide], the IC50 (50 nM Tracer 236) is 15.8 nM.

In the case of `C=CC(=O)N1CCC[C@@H](NC(=O)c2sc3nccc4c3c2NC(=O)N4c2ccc(Oc3ccccc3)cc2F)C1` [Example 10, (R)—N-(1-Acryloylpiperidin-3-yl)-5-(2-fluoro-4-phenoxyphenyl)-4-oxo-4,5-dihydro-3H-1-thia-3,5,8-triazaacenaphthylene-2-carboxamide], where the note is “50 nM Tracer 236”, the IC50 was 7.94 nM.

In the case of `C=CC(=O)N1CC[C@@H](NC(=O)c2sc3nccc4c3c2NC(=O)N4c2ccc(Oc3ccccc3)cc2C)C1` [Example 11, (R)—N-(1-Acryloylpyrrolidin-3-yl)-5-(2-methyl-4-phenoxyphenyl)-4-oxo-4,5-dihydro-3H-1-thia-3,5,8-triazaacenaphthylene-2-carboxamide], the “BTK_I_binding pIC50” value (50 nM Tracer 236) is listed as 7.9.

On to `C=CC(=O)N1CC[C@@H](NC(=O)c2sc3nccc4c3c2NC(=O)N4c2ccc(Oc3ccccc3)cc2Cl)C1` [Example 12, (R)—N-(1-Acryloylpyrrolidin-3-yl)-5-(2-chloro-4-phenoxyphenyl)-4-oxo-4,5-dihydro-3H-1-thia-3,5,8-triazaacenaphthylene-2-carboxamide], for which, where the note is “50 nM Tracer 236”, the “BTK_I_binding pIC50” value was determined as 7.7.

On to `C=CC(=O)N1C[C@@H](O)C[C@@H](NC(=O)c2sc3nccc4c3c2NC(=O)N4c2ccc(Oc3ccccc3)cc2C)C1` [Example 13, N-((3R,5S)-1-Acryloyl-5-hydroxypiperidin-3-yl)-5-(2-methyl-4-phenoxyphenyl)-4-oxo-4,5-dihydro-3H-1-thia-3,5,8-triazaacenaphthylene-2-carboxamide], for which the IC50 (50 nM Tracer 236) is 15.8 nM.

In the case of `C=CC(=O)N1C[C@H](NC(=O)c2sc3nccc4c3c2NC(=O)N4c2ccc(Oc3ccccc3)cc2C)C[C@H](OC)C1` [Example 14, N-((3R,5S)-1-Acryloyl-5-methoxypiperidin-3-yl)-5-(2-methyl-4-phenoxyphenyl)-4-oxo-4,5-dihydro-3H-1-thia-3,5,8-triazaacenaphthylene-2-carboxamide], the “BTK_I_binding pIC50” value (50 nM Tracer 236) was 7.4.

`C=CC(=O)N1CCC[C@@H](NC(=O)c2sc3nccc4c3c2NC(=O)N4c2ccc(Oc3ccccc3)cc2Cl)C1` [Example 15, (R)—N-(1-Acryloylpiperidin-3-yl)-5-(2-chloro-4-phenoxyphenyl)-4-oxo-4,5-dihydro-3H-1-thia-3,5,8-triazaacenaphthylene-2-carboxamide]: the “BTK_I_binding pIC50” value (50 nM Tracer 236) was determined as 7.6.

On to `C=CC(=O)N1CCC[C@@H](NC(=O)c2sc3nccc4c3c2NC(=O)N4c2ccc(Oc3cccc4ccoc34)cc2C)C1` [Example 16, (R)—N-(1-Acryloylpiperidin-3-yl)-5-(4-(benzofuran-7-yloxy)-2-methylphenyl)-4-oxo-4,5-dihydro-3H-1-thia-3,5,8-triazaacenaphthylene-2-carboxamide], for which the “BTK_I_binding pIC50” value (50 nM Tracer 236) is 7.3.

These data come from patent publication US10800792B2, “Inhibitors of Bruton's tyrosine kinase and method of their use” (JANSSEN PHARMACEUTICA NV, priority 2015, dated 2020).
